Data reported in patent US11161830B2, “4-pyridone compound or salt thereof, and pharmaceutical composition and formulation including same” (priority 2017, dated 2021).
pIC50: −log10 of the molar value. Where two headings read alike, the source gives them in different places.

Tests used:
[1] = system: HBV; experiment: Test Example 1-1: anti-HBV assay in HepG2.2.15 cells (test solution 200 μL/well); assay type: cell-based, hepatitis B virus; details: culture supernatant
Protocol: Using HepG2.2.15 cells (Proc. Natl. Acad. Sci. USA, 84, 1005-1009, 1987) which have an HBV genome introduced into a hepatoblastoma cell line, HepG2, and persistently produce a virus, the anti-HBV activity of the representative compounds was evaluated in the following procedure.
(§1) The following was used as a medium:
DMEM/F-12, GlutaMAX (manufactured by Invitrogen)+5 μg/mL insulin (manufactured by Wako)+1% penicillin/streptomycin (manufactured by Sigma)+10 mmol/L HEPES (manufactured by Sigma)+50 μmol/L hydrocortisone (manufactured by Sigma)+10% FBS
A mixture of a test compound with dimethyl sulfoxide (DMSO) was further added to the medium to obtain a final concentration of DMSO of 0.25% (v/v), and thus, test solutions containing the test compound at various concentrations were prepared. In addition, a test solution obtained by adding DMSO alone to the medium to obtain a final concentration of 0.25% (v/v) was prepared as a control without addition of a drug.
(1) The HepG2.2.15 cells were suspended in the medium to prepare a. HepG2.2.15 cell suspension at 4×10^5 cells/mL. The suspension was seeded in a 96-well microtiter plate (100 μL/well) and the plate was incubated in a 5% CO2 incubator at 37° C. for 2 days.
(2) The culture supernatant was removed and the cells were washed twice with PBS (−) (100 μL/well).
(3) The test solution (200 μL/well) was added to the plate of (2) and the plate was incubated in a 5% CO2 incubator at 37° C. for 4 days.
(4) The culture supernatant was removed, the test solution (200 μL/well) was added again to the plate, and the plate was incubated in a 5% CO2 incubator at 37° C. for 3 days.
(5) The culture supernatant was collected and treated with a mixture of Buffer AL (manufactured by QIAGEN) and Proteinase K (manufactured by Invitrogen). The amount of DNA of HBV (HBV-DNA) in the obtained solution was absolutely quantified by a real-time PCR method. In addition, HBsAg (hepatitis B surface antigen) in the culture supernatant was absolutely quantified by chemiluminescent enzyme immunoassay using Lumipulse (registered trademark) HBsAg-HQ (manufactured by Fujirebio Inc.). The relative viral load (%) of a well with the compound added to a well without the compound added was calculated. An IC50 of the compound was calculated using a FORECAST function (linear regression method) of Microsoft Office Excel 2007 by plotting the logarithm of the concentration against the relative viral load as a real number.
The IC50 of HBV-DNA was defined as a concentration (or a logarithm dilution of the culture supernatant) of the compound, in which the amount of HBV-DNA is reduced by 50% as compared a control without the compound added.
In addition, the IC50 of HBsAg was defined as a concentration (or a logarithm dilution of the culture supernatant) of the compound, in which the amount of HBsAg is reduced by 50% as compared a control without the compound added.

[2] = system: HBV (genotype AeUS); experiment: Test Example 2-1: anti-HBV assay in PXB-cells (fresh human hepatocytes); assay type: cell-based, hepatitis B virus; details: PXB-cells infected with HBV genotype AeUS, culture supernatant on day 32 post infection
Protocol: Using fresh human hepatocytes (PXB-cells, manufactured by PhenixBio Co., Ltd.) collected from a PXB mouse (a chimeric mouse with human hepatocytes), the anti-HBV activity of the representative compounds was evaluated in the following procedure.
as §1
DMEM (manufactured by Sigma)+0.25 μg/mL insulin (manufactured by Wako)+1% penicillin/streptomycin. (manufactured by Sigma)+20 mmol/L HEPES (manufactured by Sigma)+15 μg/mL L-proline (manufactured by Sigma)+50 nmol/L dexamethasone (manufactured by Sigma)+5 ng/mL EGF (manufactured by Peprotech)+0.1 mmol/L ascorbic acid 2-phosphate (manufactured by Wako)+10% FBS+2% DMSO
Each of the test compounds) was further added to the medium to prepare a test solution containing each of the test compounds at various concentrations.
(1) PXB-cells seeded at a seeding density of 2.1×10^5 cells/cm^2 in a 96-well microliter plate were incubated in a 5% CO2 incubator at 37° C. until a day on which the cells were infected.
(2) HBV (genotype AeUS) derived from a PXB mouse serum was suspended in the medium containing 4% PEG-8000, and added to the plate of (1) at about 10 copies/cell such that the PXB cells were infected (100 μL/well), and the plate was incubated in a 5% CO2 incubator at 37° C. for 1 day.
(3) The culture supernatant on day 1 post infection was removed and the cells were washed three times with DMEM containing 10% FBS and 1% penicillin/streptomycin. Then, the medium was added to the plate (100 μL/well) and the plate was incubated in a 5% CO2 incubator at 37° C. for 1 day.
(4) The culture supernatant on day 2 post infection was removed and the cells were washed three times with DMEM containing 10% FBS and 1% penicillin/streptomycin. Then, the medium was added to the plate (100 μL/well) and the plate was incubated in a 5% CO2 incubator at 37° C. for 5 days.
(5) The culture supernatant on day 7 post infection was removed, the medium was added to the plate (100 μL/well), and the plate was incubated in a 5% CO2 incubator at 37° C. for 5 days.
(6) The culture supernatant on day 12 post infection was removed, the medium was added to the plate (100 μL/well), and the plate was incubated in a 5% CO2 incubator at 37° C. for 5 days.
(§2) (7) The culture supernatant on day 17 post infection was removed, the test solution was added to the plate (100 μL/well), and the plate was incubated in a 5% CO2 incubator at 37° C. for 5 days. As a control without the compound added, the medium was added to the plate (100 μL/well) and the plate was incubated in a 5% CO2 incubator at 37° C. for 5 days.
as §2, with “(8)” for “(7)”, “22” for “17”
as §2, with “(9)” for “(7)”, “27” for “17”
(10) The culture supernatant on day 32 post infection was collected.
(11) The collected culture supernatant on day 32 post infection was purified with a QIAamp (registered trademark) DNA Blood Mini Kit (manufactured by QIAGEN). The amount of HBV-DNA in the obtained solution was absolutely quantified by a real-time PCR method. In addition, the amount of HBsAg in the culture supernatant was absolutely quantified by chemiluminescent enzyme immunoassay using Lumipulse (registered trademark) HBsAg-HQ (manufactured by Fujirebio Inc.). A relative viral load (%) with respect to a control without the compound added was each calculated. […]

[3] = Hepatitis B virus, read-out: IC50 HBV-DNA
[4] = Hepatitis B virus, read-out: IC50 HBsAg
[5] = Hepatitis B virus, Hepatocyte, read-out: IC50 HBV-DNA
[6] = Hepatitis B virus, Hepatocyte, read-out: IC50 HBsAg

Compound	pIC50 [1, 3]	pIC50 [1, 4]	pIC50 [2, 5]	pIC50 [2, 6]	pIC50 ([1]; read-out: IC50 HBV-DNA)	pIC50 ([1]; read-out: IC50 HBsAg)	pIC50 ([2]; read-out: IC50 HBV-DNA)	pIC50 ([2]; read-out: IC50 HBsAg)
Cc1nc2ccc(-n3cc(C(=O)O)c(=O)cc3-c3ccc(N4CCCC4)c(Br)c3)cc2s1 [Example 5-1, 6-(3-bromo-4-(pyrrolidin-1-yl)phenyl)-1-(2-methylbenzo[d]thiazol-6-yl)-4-oxo-1,4-dihydropyridine-3-carboxylic acid]	8.43	8.19	6.70	6.82				
O=C(O)c1cn(-c2ccc3ncsc3c2)c(-c2ccc(N3CCCC3)cc2)cc1=O [Example 3-1, 1-(benzo[d]thiazol-6-yl)-4-oxo-6-(4-(pyrrolidin-1-yl)phenyl)-1,4-dihydropyridine-3-carboxylic acid]	7.57	7.68	6.64	6.27				
1-(2-morpholinebenzo[d]thiazol-6-yl)-4-oxo-6-(4-(pyrrolidin-1-yl)phenyl)-1,4-dihydropyridine-3-carboxylic acid [Example 3-4]					8.26	8.23	7.66	7.85
CO[C@@H]1CCN(c2ccc(-c3cc(=O)c(C(=O)O)cn3-c3ccc4nc(N5CCOCC5)sc4c3)cc2Cl)C1 [Example 11, (R)-6-(3-Chloro-4-(3-methoxypyrrolidin-1-yl)phenyl)-1-(2-morpholinobenzo[d]thiazol-6-yl)-4-oxo-,4-dihydropyridine-3-carboxylic acid]	7.89	8.31	7.55	7.09				
COC[C@H]1CCCN1c1nc2ccc(-n3cc(C(=O)O)c(=O)cc3-c3ccc(N4CCCC4)cc3)cc2s1 [Example 3-10, (R)-1-(2-(2-(methoxymethyl)pyrrolidin-1-yl)benzo[d]thiazol-6-yl)-4-oxo-6-(4-(pyrrolidin-1-yl)phenyl)-1,4-dihydropyridine-3-carboxylic acid]	8.55	8.89	7.82	7.41				
O=C(O)c1cn(-c2ccc3nc(N4CCOCC4)sc3c2)c(-c2ccc(N3CCCC3)c(F)c2)cc1=O [Example 7, 6-(3-Fluoro-4-(pyrrolidin-1-yl)phenyl)-1-(2-morpholinobenzo[d]thiazol-6-yl)-4-oxo-1,4-dihydropyridine-3-carboxylic acid]	8.85	8.51	7.92	7.39				
O=C(O)c1cn(-c2ccc3nc(NCc4ncccn4)sc3c2)c(-c2ccc(N3CCCC3)cc2)cc1=O [Example 3-13, 4-oxo-1-(2-((pyrimidin-2-ylmethyl)amino)benzo[d]thiazol-6-yl)-6-(4-(pyrrolidin-1-yl)phenyl)-1,4-dihydropyridine-3-carboxylic acid]	8.41	8.29	> 8.10	7.41				
COC[C@H]1CCCN1c1nc2ccc(-n3cc(C(=O)O)c(=O)cc3-c3ccc(N4CCCC4)c(Br)c3)cc2s1 [Example 5-6, (R)-6-(3-bromo-4-(pyrrolidin-1-yl)phenyl)-1-(2-(2-(methoxymethyl)pyrrolidin-1-yl)benzo[d]thiazol-6-yl)-4-oxo-1,4-dihydropyridine-3-carboxylic acid]			7.39	7.21				
COCCN1CCN(c2nc3ccc(-n4cc(C(=O)O)c(=O)cc4-c4ccc(N5CC[C@@H](OC)C5)c(Cl)c4)cc3s2)CC1 [Example 12-2, (R)-6-(3-chloro-4-(3-methoxypyrrolidin-1-yl)phenyl)-1-(2-(4-(2-methoxyethyl)piperazin-1-yl)benzo[d]thiazol-6-yl)-4-oxo-1,4-dihydropyridine-3-carboxylic acid]			7.55	7.38				
COCCN(CCOC)c1nc2ccc(-n3cc(C(=O)O)c(=O)cc3-c3ccc(N4CC[C@@H](OC)C4)c(Cl)c3)cc2s1 [Example 12-1, (R)-1-(2-(bis(2-methoxyethyl)amino)benzo[d]thiazol-6-yl)-6-(3-chloro-4-(3-methoxypyrrolidin-1-yl)phenyl)-4-oxo-1,4-dihydropyridine-3-carboxylic acid]			> 8.10	7.96				
COC[C@H]1CCCN1c1nc2ccc(-n3cc(C(=O)O)c(=O)cc3-c3ccc(N4CCCC4)c(Cl)c3)cc2s1 [Example 6-3, (R)-6-(3-chloro-4-(pyrrolidin-1-yl)phenyl)-1-(2-(2-(methoxymethyl)pyrrolidin-1-yl)benzo[d]thiazol-6-yl)-4-oxo-1,4-dihydropyridine-3-carboxylic acid]			7.52	7.24				
CCN1CCN(c2nc3ccc(-n4cc(C(=O)O)c(=O)cc4-c4ccc(N5CC[C@@H](OC)C5)cc4)cc3s2)CC1 [Example 10-4, (R)-1-(2-(4-ethylpiperazin-1-yl)benzo[d]thiazol-6-yl)-6-(4-(3-methoxypyrrolidin-1-yl)phenyl)-4-oxo-1,4-dihydropyridine-3-carboxylic acid]			7.21	7.11				
